Key:
MOLT-4 [1] = assay: Cell viability (CellTiter Glo), library of cancer drugs, individual or sample compression with randomized (alphabetical) pools, MOLT-4; assay type: cell-based; conditions: for DRS: MOLT-4, None (measured individually); for DRS from deconvolution: MOLT-4, Samples, 7 Pick 3 randomized (alphabetical) sample pools
Summary of the method: (§1)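 Cells cultured with each drug individually at 1 nM–10 μM; viability by ATP luminescence (CellTiter Glo) to build dose-response curves and DRS. Samples read singly or pooled alphabetically (each drug in 3 of 7 pools), with pooled DRS recovered by additivity-based SUM deconvolution.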

REH [2] = assay: Cell viability (CellTiter Glo), compressed perturbation pools with informed pool design, SUM-based deconvolution, REH; set-up: scale not given here
Method: (§2) Total cell viability was measured for each sample using an ATP-based luminescence assay (i.e., CellTiter Glo). Each cancer drug was then screened at multiple concentrations ranging from one nM to ten μM in order to generate a dose-response curve and calculate a DRS for each cancer cell line.
(§3) Each cancer drug was cultured with target cells individually. At the end of the screen, samples were either analyzed individually or compressed into pools for analysis. The library was compressed alphabetically into ten cohorts, each of which contained seven cancer drugs present in three out of the seven pools, as shown in Table VII. Said another way, the screening platform 210 generated a “7 pick 3” compressed library by assigning the cancer drugs among different pools. […] The library was also compressed into ten cohorts with pools designed based on information known about each cancer drug, as shown in Table VIII. After cell viability measurement and DRS calculation, the DRS of each cancer drug in the samples generated based on the pools were deconvoluted and compared to the DRS for each cancer drug measured individually.
(§4) In parallel to the exemplary sample compression screen covered in Table VII, perturbations were compressed into pools and then screened. The pools were designed using drug class as a feature with two compression rules (or simply “rules”). The first rule required that drugs from the same class be separated into different cohorts (i.e., mutually exclusive groups of pools). The second rule separated PI3K pathway inhibitors from MAPK pathway inhibitors, as inhibiting these pathways in parallel is known to be synergistic but has not been clinically effective due to dose-limiting toxicities. A benefit of compressing perturbations is the ability to measure additive, antagonistic, and synergistic effects between drugs in the same pool. However, these effects can negatively impact deconvolution of individual drug effects. Therefore, combinations of drugs for which evidence of clinical toxicity exists can be assigned to different pools in accordance with an informed pooling operation. As new preclinical or clinical evidence of toxic combinations becomes available, the rules implemented by the screening platform 210—and more specifically, its algorithm for compressing members of a library—can be updated accordingly.
(§5) In SUM-based deconvolution, an assumption of additivity is used to quantify the individual effects of each perturbation on each target. Additivity implies that each perturbation effect on each target is positively contributing to the overall effect measured for that pool. This is an accurate assumption for certain experiments, such as when targets or samples are compressed. When targets are pooled—or when samples containing different targets are pooled—the effect of each perturbation on each individual target is diluted. In other words, each perturbation has an isolated effect on a target in culture, and the sum total of the isolated effects are measured when pooled. Therefore, SUM-based deconvolution breaks down the sum total measured for a pool and assigns estimated fractional effects to each compressed perturbation or target in the pool. The screening platform 210 used SUM-based deconvolution for all target and sample compression experiments described above.
(§6) As mentioned above, SUM-based deconvolution uses the overlapping pool design to identify relative relationships and ranges for the individual effects of each perturbation. When the overlapping pool design is not sufficient to solve for the polynomials representing perturbation effects, an anchor perturbation can be identified by the screening platform 210 based on rank order and assigned an effect size of zero. The anchor perturbation may be the lowest ranked perturbation in the rank order. This then enables the screening platform 210 to solve for the polynomials for the remaining perturbations.

REH [3] = assay: Cell viability (CellTiter Glo), compressed perturbation pools with informed pool design, MAX-based deconvolution, REH; conditions: for DRS / DRS from MAX-based deconvolution / DRS, REH, MAX / top hit of cohort (deconvoluted effect size): REH; for DRS: None (measured individually), informed pool design table; for DRS from MAX-based deconvolution: Samples, 7 Pick 3 informed perturbation pools; for DRS, REH, MAX: compressed perturbation pools, informed pool design, MAX-based deconvolution; for top hit of cohort (deconvoluted effect size): informed perturbation pools;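 as to DRS from MAX-based deconvolution: higher DRS means a larger drug effect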
Summary of the method: (§7)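 Per-drug DRS recovered by MAX deconvolution, which assumes the strongest pool member masks the rest; after ranking, each drug in turn takes the DRS of the lowest-signal pool containing it, and leftovers score zero. Pools built from drug class and known toxic combinations; dose-response spans 1 nM to 10 μM, read by ATP-based luminescence.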

REH [4] = assay: Cell viability (CellTiter Glo), library of cancer drugs, individual or sample compression with randomized (alphabetical) pools, REH; assay type: cell-based; conditions: REH; for DRS: None (measured individually); for DRS from deconvolution: Samples, 7 Pick 3 randomized (alphabetical) sample pools
Summary of the method: as §1

MOLT-4 [5] = assay: Cell viability (CellTiter Glo), compressed perturbation pools with informed pool design, MAX-based deconvolution, MOLT-4; conditions: for DRS: MOLT-4, None (measured individually), informed pool design table; for DRS from MAX-based deconvolution: MOLT-4, Samples, 7 Pick 3 informed perturbation pools; for DRS, MOLT-4, MAX: compressed perturbation pools, informed pool design, MAX-based deconvolution; for top hit of cohort (deconvoluted effect size): informed perturbation pools;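 as to DRS from MAX-based deconvolution: higher DRS means a larger drug effect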
Summary of the method: as §7

MOLT-4 [6] = assay: Cell viability (CellTiter Glo), compressed perturbation pools with informed pool design, SUM-based deconvolution, MOLT-4; set-up: scale not given here
Method: as §2, §3, §4, §5, §6

SMILES	DRS (MOLT-4 [1])	DRS from deconvolution (MOLT-4 [1])	DRS, REH, SUM (REH [2])	DRS (REH [3])	DRS from MAX-based deconvolution (REH [3])	DRS, REH, MAX (REH [3])	DRS (REH [4])	DRS from deconvolution (REH [4])	effect size relative to everolimus (MOLT-4 [5]; MOLT, Cohort 10)	DRS (MOLT-4 [5])	DRS from MAX-based deconvolution (MOLT-4 [5])	DRS, MOLT-4, MAX (MOLT-4 [5])	DRS, MOLT-4, SUM (MOLT-4 [6])	effect on REH relative to MOLT cell line (REH [3])	top hit of cohort (deconvoluted effect size) (REH [3])	top hit of cohort (deconvoluted effect size) (MOLT-4 [5]; MOLT)
CCOc1cc2ncc(C#N)c(Nc3ccc(OCc4ccccn4)c(Cl)c3)c2cc1NC(=O)/C=C/CN(C)C [Neratinib]	4.08	4.32	0.37	29.39	34.11	3.06	2.58	2.32	larger effect size than everolimus	29.89	35.00	4.35	2.74			
CO[C@H]1C[C@@H]2CC[C@@H](C)[C@@](O)(O2)C(=O)C(=O)N2CCCC[C@H]2C(=O)O[C@H]([C@H](C)C[C@@H]2CC[C@@H](OCCO)[C@H](OC)C2)CC(=O)[C@H](C)/C=C(\C)[C@@H](O)[C@@H](OC)C(=O)[C@H](C)C[C@H](C)/C=C/C=C/C=C/1C [Everolimus]	2.19	2.35	9.02	0.23	0.00	9.02	7.39	7.70		0.23	0.00	2.51	1.42	much larger effects on the REH cell line		
O=C(/C=C\n1cnc(-c2cc(C(F)(F)F)cc(C(F)(F)F)c2)n1)NNc1cnccn1 [Selinexor]	24.71	25.16	26.41	2.30	2.51	23.72	21.81	21.40		0.00	0.00	24.91	24.24		top hit	top hit
Cc1nc(NC(=O)N2CCC[C@H]2C(N)=O)sc1-c1ccnc(C(C)(C)C(F)(F)F)c1 [Alpelisib]	1.79	1.94	1.12	0.21	0.35	3.57	0.79	0.75		0.01	0.00	0.00	0.00			
CNC(=O)c1ccc(N2C(=S)N(c3cnc(C#N)c(C(F)(F)F)c3)C(=O)C23CCC3)cc1F [Apalutamide]	0.38	0.33	0.73	0.00	0.00	0.73	0.38	0.35		0.00	0.00	4.94	1.88			
O=C(/C=C/c1cccc(S(=O)(=O)Nc2ccccc2)c1)NO [Belinostat]	18.70	12.21	18.09	12.12	14.23	18.94	16.20	15.81		13.42	15.55	21.41	14.77			
COc1cc(OC)cc(N(CCNC(C)C)c2ccc3ncc(-c4cnn(C)c4)nc3c2)c1 [Erdafitinib]	3.37	3.41	0.00	0.38	0.73	0.00	4.37	4.03		0.38	4.94	3.88	1.38			
CO[C@H]1C[C@@H]2CC[C@@H](C)[C@@](O)(O2)C(=O)C(=O)N2CCCC[C@H]2C(=O)O[C@H]([C@H](C)C[C@@H]2CC[C@@H](OC(=O)C(C)(CO)CO)[C@H](OC)C2)CC(=O)[C@H](C)/C=C(\C)[C@@H](O)[C@@H](OC)C(=O)[C@H](C)C[C@H](C)/C=C/C=C/C=C/1C [Temsirolimus]	2.99	3.21	9.71	8.19	9.23	9.23	8.19	8.71		2.99	3.88	3.88	2.54	much larger effects on the REH cell line	top hit	top hit
COc1cc2ncnc(Nc3ccc(F)c(Cl)c3)c2cc1NC(=O)/C=C/CN1CCCCC1 [Dacomitinib]	2.60	2.53	1.33	0.00	0.00	0.00	3.10	3.15		0.00	0.00	0.00	0.99			
C[C@@H](Oc1cc(-c2cnn(C3CCNCC3)c2)cnc1N)c1c(Cl)ccc(F)c1Cl [Crizotinib]	0.23	0.28	0.00	0.27	0.00	0.00	0.23	015		0.27	0.27	0.00	3.06			
COc1cc2nccc(Oc3ccc(NC(=O)NC4CC4)c(Cl)c3)c2cc1C(N)=O [Lenvatinib]	0.74	0.77	0.00	0.00	0.00	0.00	0.14	0.00		0.00	0.00	0.00	0.89			
C#Cc1cccc(Nc2ncnc3cc(OCCOC)c(OCCOC)cc23)c1 [Erlotinib]	1.04	0.96	1.67	5.88	7.06	0.00	1.84	1.59		0.68	5.39	0.00	1.55			

— patent publication US20260378560A1, “APPROACHES TO DESIGNING AND PERFORMING COMPRESSED BIOLOGICAL EXPERIMENTS AND SYSTEMS FOR IMPLEMENTING THE SAME” (EXVIVO LABS INC., priority 2023, published 2026)
